Results on 11 compounds are retold here after US20100184683A1, “ANTIBACTERIAL AND ANTIFUNGAL PEPTIDES” (C3 JIAN, INC., priority 2009, published 2010).

One assay relates to A. baumannii. The assay is classed as cell-based, Acinetobacter baumannii. The procedure:
(§1) In certain embodiments the MIC assays are performed as described herein in the Examples. For each organism, the media and growth conditions utilized is detailed in Table 8.
(§2) In certain embodiments the MIC assays are performed as follows: For each organism, the media and growth conditions utilized is detailed in Table 8.

The test system of a further assay is C. difficile. The assay is classed as cell-based, Clostridium difficile. The procedure: as §1, §2
The test system of a further assay is MRSA. The assay is classed as cell-based, Methicillin-resistant Staphylococcus aureus. The settings on record: MRSA; BHI supplemented with 2% glucose, 37° C., aerobic; inoculum 10^5 CFU/ml; 18-24 h or 48 h. The procedure:
as §1, §2

Another assay relates to B. subtilis. The assay is classed as cell-based, Bacillus subtilis. To be noted: B. subtilis; BHI, 30° C., aerobic; inoculum 10^5 CFU/ml; 18-24 h or 48 h. The procedure: as §1, §2
The next assay has as its system P. gingivalis. The assay is classed as cell-based, Porphyromonas gingivalis. The procedure: as §1, §2
For a further assay, the system named is S. epidermidis. The class given is cell-based. The procedure:
as §1, §2

The subject of the next assay is A. naeslundii. The assay is classed as cell-based, Actinomyces naeslundii. The procedure:
as §1, §2

In another assay the test system is T. rubrum. The assay is classed as cell-based, Trichophyton rubrum. The procedure: as §1, §2
A further assay concerns S. mutans. The class given is cell-based, Streptococcus mutans. The procedure:
as §1, §2

A further assay concerns C. albicans. The class given is cell-based, Candida albicans. The procedure:
as §1, §2

In another assay the test system is A. niger. The class given is cell-based, Aspergillus niger. The procedure: as §1, §2

Broadly, the MIC is the lowest concentration found to suppress growth. Low values mean inhibition by little substance, high ones a need for much substance.

≈ marks a conversion by molar mass, not a printed value. Like-named read-outs stand apart in the source and are kept apart here. Ends that are not written are not given here. Peptide text beside a SMILES is read from it.

As for `CC[C@H](C)[C@H](NC(=O)[C@H](CO)NC(=O)[C@H](CC(C)C)NC(=O)[C@H](CCSC)NC(=O)[C@H](CC(C)C)NC(=O)[C@H](CCC(=O)O)NC(=O)CNC(=O)[C@H](CCCCN)NC(=O)[C@H](Cc1ccc(O)cc1)NC(=O)[C@H](CCC(=O)O)NC(=O)[C@H](CCCCN)NC(=O)[C@@H](NC(=O)[C@@H](NC(=O)[C@@H](NC(=O)[C@H](CCCCN)NC(=O)[C@H](CCCNC(=N)N)NC(=O)[C@H](CC(C)C)NC(=O)[C@@H](NC(=O)[C@H](CCCCN)NC(=O)[C@H](Cc1ccccc1)NC(=O)[C@H](CCCCN)NC(=O)[C@@H](N)CO)C(C)C)[C@@H](C)CC)[C@@H](C)CC)[C@@H](C)CC)C(=O)N[C@@H](CCC(N)=O)C(=O)N[C@@H](CCCCN)C(=O)N[C@@H](CCC(N)=O)C(=O)N[C@@H](CCCNC(=N)N)C(=O)O` [PF-530] (H-SKFKVLRKIIIKEYKGELMLSIQKQR-OH; N-terminus and C-terminus assumed), the MIC in the assay with A. baumannii was 25 µM (≈ 79.4 µg/mL).

Take `CC[C@H](C)[C@H](NC(=O)[C@H](CCC(=O)O)NC(=O)[C@H](CCCCN)NC(=O)[C@@H](NC(=O)[C@H](CCCCN)NC(=O)[C@H](CCC(=O)O)NC(=O)[C@H](CC(C)C)NC(=O)[C@@H](NC(=O)[C@H](CC(=O)O)NC(=O)[C@@H](NC(=O)[C@H](CCC(N)=O)NC(=O)[C@H](CCCCN)NC(=O)[C@H](CCCCN)NC(=O)[C@H](CC(N)=O)NC(=O)[C@@H](N)CCCCN)[C@@H](C)O)[C@@H](C)CC)C(C)C)C(=O)N[C@@H](CC(C)C)C(=O)N[C@@H](CC(=O)O)C(=O)N[C@@H](CCCCN)C(=O)N[C@@H](CCCCN)C(=O)N[C@@H](CCCCN)C(=O)N[C@@H](CCCCN)C(=O)N[C@H](C(=O)N[C@@H](CCCCN)C(=O)N[C@@H](CO)C(=O)N[C@H](C(=O)NCC(=O)N[C@@H](CCC(N)=O)C(=O)N[C@@H](CCCCN)C(=O)N[C@@H](CC(C)C)C(=O)N[C@@H](Cc1ccc(O)cc1)C(=O)O)C(C)C)[C@@H](C)O` [PF-538] (H-KNKKQTDILEKVKEILDKKKKTKSVGQKLY-OH; N-terminus and C-terminus assumed): the MIC in the assay with C. difficile and against A. baumannii was 25 µM (≈ 89 µg/mL) in each case.

On to `CC[C@H](C)[C@H](NC(=O)CNC(=O)[C@@H](N)CCSC)C(=O)N[C@H](C(=O)N[C@@H](C)C(=O)NCC(=O)N[C@H](C(=O)N[C@H](C(=O)N[C@@H](CCCCN)C(=O)N[C@@H](Cc1ccccc1)C(=O)N[C@H](C(=O)N[C@@H](CCCCN)C(=O)NCC(=O)N[C@@H](CC(C)C)C(=O)N[C@H](C(=O)N[C@@H](CCC(=O)O)C(=O)N[C@@H](CCCCN)C(=O)N[C@@H](Cc1ccccc1)C(=O)N[C@H](C(=O)NCC(=O)N[C@@H](CCCCN)C(=O)O)[C@@H](C)O)[C@@H](C)CC)[C@@H](C)CC)[C@@H](C)CC)[C@@H](C)CC)[C@@H](C)CC` [PF-006], for which the MIC with A. baumannii (A. baumannii, LB, 30° C., anaerobic, inoculum 10^5 CFU/ml, 18-24 h or 48 h) was found to be 50 µM (≈ 114 µg/mL); with MRSA it was 50 µM (≈ 114 µg/mL); with B. subtilis, 25 µM (≈ 56.9 µg/mL).

“MPVSKKRYMLSSAYATALGICYGQVATDEKESEITAIPDLLDYLSVEEYLL [PF-C163]”: the MIC against P. gingivalis, against S. epidermidis and against A. naeslundii was 50 µM throughout.

In the case of WSRVPGHSDTGWKVWHRW [PF-547], the MIC came to 25 µM against T. rubrum (T. rubrum, Potato Dextrose Agar, 25° C., aerobic, inoculum 10^5 CFU/ml, 18-24 h or 48 h); 12.5 µM against S. mutans (S. mutans, TH supplemented with 1% sucrose, 37° C., anaerobic, inoculum 10^5 CFU/ml, 18-24 h or 48 h); 25 µM in the assay on B. subtilis.

In the case of `CC[C@H](C)[C@H](NC(=O)[C@H](CCCNC(=N)N)NC(=O)[C@H](C)NC(=O)[C@@H]1CCCN1C(=O)[C@H](Cc1c[nH]c2ccccc12)NC(=O)[C@H](CC(C)C)NC(=O)[C@H](CCCNC(=N)N)NC(=O)[C@H](CCCCN)NC(=O)[C@@H](N)Cc1c[nH]c2ccccc12)C(=O)N[C@@H](CC(C)C)C(=O)N[C@@H](C)C(=O)NCC(=O)N[C@@H](Cc1c[nH]cn1)C(=O)N[C@@H](CO)C(=O)N[C@@H](CCCNC(=N)N)C(=O)N[C@@H](CCCNC(=N)N)C(=O)N[C@@H](CCCNC(=N)N)C(=O)N[C@@H](CCSC)C(=O)N[C@@H](CCCNC(=N)N)C(=O)N[C@@H](Cc1c[nH]c2ccccc12)C(=O)N[C@@H](CCSC)C(=O)N[C@H](C(=O)N[C@H](C(=O)N[C@@H](Cc1c[nH]c2ccccc12)C(=O)N[C@@H](CCCNC(=N)N)C(=O)N[C@@H](Cc1ccc(O)cc1)C(=O)N[C@@H](Cc1ccccc1)C(=O)N[C@@H](C)C(=O)N[C@@H](C)C(=O)N[C@H](C(=O)O)[C@@H](C)O)C(C)C)C(C)C` [PF-C021] (H-WKRLWPARILAGHSRRRMRWMVVWRYFAAT-OH; N-terminus and C-terminus assumed), the minimal inhibitory concentration (MIC) against C. albicans and against T. rubrum was 50 µM (≈ 193 µg/mL) in each case.

Regarding `CC[C@H](C)[C@H](N)C(=O)N[C@@H](CC(C)C)C(=O)N[C@@H](CC(N)=O)C(=O)N[C@@H](CCCCN)C(=O)N[C@@H](CCCCN)C(=O)N1CCC[C@H]1C(=O)N[C@@H](CCCCN)C(=O)N[C@@H](CC(C)C)C(=O)N1CCC[C@H]1C(=O)N[C@@H](CC(C)C)C(=O)N[C@@H](Cc1c[nH]c2ccccc12)C(=O)N[C@@H](CCCCN)C(=O)N[C@@H](CC(C)C)C(=O)NCC(=O)N[C@@H](CCCCN)C(=O)N[C@@H](CC(N)=O)C(=O)N[C@@H](Cc1ccc(O)cc1)C(=O)N[C@@H](Cc1ccccc1)C(=O)N[C@@H](CCCNC(=N)N)C(=O)N[C@@H](CCCNC(=N)N)C(=O)N[C@@H](Cc1ccccc1)C(=O)N[C@@H](Cc1ccc(O)cc1)C(=O)N[C@H](C(=O)N[C@@H](CC(C)C)C(=O)N1CCC[C@H]1C(=O)N[C@H](C(=O)N[C@@H](Cc1ccccc1)C(=O)N[C@@H](CC(C)C)C(=O)N[C@@H](C)C(=O)O)[C@@H](C)O)C(C)C` [PF-C287] (H-ILNKKPKLPLWKLGKNYFRRFYVLPTFLA-OH; N-terminus and C-terminus assumed), the figures for the MIC against P. gingivalis, in the assay with A. naeslundii and in the assay on C. albicans were 50 µM (≈ 178 µg/mL), 25 µM (≈ 89.1 µg/mL) and 50 µM (≈ 178 µg/mL), respectively.

Consider `CC[C@H](C)[C@H](NC(=O)[C@H](CCCNC(=N)N)NC(=O)[C@@H]1CCCN1C(=O)[C@H](CCC(=O)O)NC(=O)[C@H](CC(C)C)NC(=O)[C@@H]1CCCN1C(=O)[C@H](CC(=O)O)NC(=O)[C@@H](N)CC(C)C)C(=O)N[C@@H](C)C(=O)N1CCC[C@H]1C(=O)N1CCC[C@H]1C(=O)NCC(=O)N[C@@H](CC(=O)O)C(=O)N[C@@H](CCCNC(=N)N)C(=O)N[C@@H](CO)C(=O)N[C@@H](Cc1c[nH]cn1)C(=O)N[C@@H](CCC(N)=O)C(=O)NCC(=O)N[C@@H](C)C(=O)N1CCC[C@H]1C(=O)N[C@@H](C)C(=O)N[C@@H](CS)C(=O)N[C@@H](Cc1c[nH]cn1)C(=O)N[C@@H](CCCNC(=N)N)C(=O)N[C@@H](CC(=O)O)C(=O)N1CCC[C@H]1C(=O)N[C@@H](CC(C)C)C(=O)N[C@@H](CCCNC(=N)N)C(=O)NCC(=O)N[C@@H](CCCNC(=N)N)C(=O)N[C@@H](CO)C(=O)N[C@@H](C)C(=O)N[C@@H](CCCNC(=N)N)C(=O)N[C@@H](CC(=O)O)C(=O)N[C@@H](C)C(=O)N[C@@H](CCC(=O)O)C(=O)N[C@@H](CCCNC(=N)N)C(=O)O` [PF-C019] (H-LDPLEPRIAPPGDRSHQGAPACHRDPLRGRSARDAER-OH; N-terminus and C-terminus assumed), for which the MIC against T. rubrum came to 50 µM (≈ 204 µg/mL); with A. niger it was 50 µM (≈ 204 µg/mL); in the assay on S. mutans it was 25 µM (≈ 102 µg/mL).

In the case of FELVDWLETNLGKILKSKSA [PF-522], in the assay on C. difficile (C. difficile, BHIS, 37° C., anaerobic, inoculum 10^5 CFU/ml, 18-24 h or 48 h), the MIC was 25 µM.

For the compound `CC(C)[C@H](NC(=O)[C@@H](N)Cc1ccc(O)cc1)C(=O)N[C@@H](CC(N)=O)C(=O)N[C@@H](Cc1ccc(O)cc1)C(=O)N[C@@H](CC(N)=O)C(=O)N[C@@H](CCC(N)=O)C(=O)N[C@@H](CO)C(=O)N[C@@H](Cc1ccccc1)C(=O)N[C@@H](CC(N)=O)C(=O)N[C@@H](CO)C(=O)NCC(=O)N[C@@H](Cc1c[nH]c2ccccc12)C(=O)O` [PF-C220] (H-YVNYNQSFNSGW-OH; N-terminus and C-terminus assumed), in the assay on C. albicans, the MIC turned out to be 50 µM (≈ 73.9 µg/mL).

With `CC[C@H](C)[C@H](NC(=O)[C@H](CCCCN)NC(=O)[C@H](C)NC(=O)[C@H](Cc1ccccc1)NC(=O)[C@@H](NC(=O)[C@H](C)NC(=O)[C@H](CC(C)C)NC(=O)[C@H](CO)NC(=O)[C@@H](N)CC(C)C)[C@@H](C)O)C(=O)N[C@@H](Cc1ccccc1)C(=O)N[C@@H](CCSC)C(=O)N[C@H](C(=O)N[C@@H](CCCNC(=N)N)C(=O)N[C@@H](CO)C(=O)N[C@@H](CC(N)=O)C(=O)N[C@@H](Cc1c[nH]c2ccccc12)C(=O)N[C@@H](CO)C(=O)N[C@@H](CC(C)C)C(=O)N[C@@H](CCCCN)C(=O)N[C@@H](CCCNC(=N)N)C(=O)N[C@@H](Cc1ccccc1)C(=O)N[C@@H](CC(N)=O)C(=O)N[C@@H](CCCNC(=N)N)C(=O)N[C@@H](CC(C)C)C(=O)O)[C@@H](C)O` [PF-278] (H-LSLATFAKIFMTRSNWSLKRFNRL-OH; N-terminus and C-terminus assumed), the minimum inhibitory concentration (MIC) with S. epidermidis, in the assay on C. albicans and in the assay with T. rubrum was 50 µM throughout.
